Measurements: patent US8030286B2, “Methods and means for increasing resistance to cell damage” (University of Medicine and Dentistry of New Jersey, priority 2004, dated 2011)

Legend:
eEF2 kinase+/+ MEFs = test: MTT viability assay, wild type MEFs; type: cell-based, mouse
Method: (§1) MTT Survival Assay: MEFs used in this study (2×10^3 cells per well of a 96 well plate) are incubated in the presence of indicated drugs for 24 hours. Cell viability is determined using the standard MTT assay^30. Each experiment is repeated three times for each drug and each cell line using three parallel wells for each drug concentration. For colony formation assay cells are treated with indicated drugs for 24 hours and replated with complete DMEM at low density (500 cells per well in 6-well plate) in duplicate. After 10 days colonies are stained with 10 mg/ml methylene blue (Sigma Inc.) in 50% methanol.
(§2) The possible correlation between activation of eEF2 kinase and the resultant phosphorylation of eEF2 and Ca^2+ ionophore-induced cell death is addressed by comparing the viability of wild type and eEF2 kinase knockout mouse embryonic fibroblasts (MEFs) after incubation of each with different concentrations of ionomycin.

eEF2 kinase−/− MEFs = test: MTT viability assay, eEF2 kinase knockout MEFs; type: cell-based, mouse
Method: as §1, §2

[1] = system: wild type mouse embryonic fibroblasts (MEFs); test: Cell death in phase-contrast images, wild type MEFs; type: cell-based; details: 1.6 μM doxorubicin, 24 hours
eEF2K-deficient cells = test: Cell death in phase-contrast images, eEF2K-deficient MEFs; type: cell-based, mouse; details: 1.6 μM doxorubicin, 24 hours

In the case of `Cc1ccc(C(=O)Cn2c3c(sc2=N)CCCC3)cc1` [PFTα, pifithrin α], the “effect of p53 inactivation on drug sensitivity (DOX)” value (eEF2 kinase+/+ MEFs; DOX 24 h, MTT assay) is reported as “strongly decreasing sensitivity” and the “effect of p53 inactivation on drug sensitivity (DOX)” value (eEF2 kinase−/− MEFs; DOX 24 h, MTT assay) is reported as “only slightly affected”.

In the case of `COc1cccc2c1C(=O)c1c(O)c3c(c(O)c1C2=O)C[C@@](O)(C(=O)CO)C[C@@H]3O[C@H]1C[C@H](N)[C@H](O)[C@H](C)O1` [doxorubicin], the cell death [1] is reported as “significant cell death” and the cell death (eEF2K-deficient cells) is reported as “much less cell death”.

`C[C@H](CCC(=O)O)C[C@H](C)C[C@H](C)C(=O)/C=C(\O)[C@H](C)C[C@H](C)C/C=C/[C@@H](C)[C@@H](O)[C@@H](C)[C@@H](O)C[C@@H]1CC[C@@](C)([C@H]2CC[C@@](C)([C@@H](C)O)O2)O1` [ionomycin] was tested, and the cells die (eEF2 kinase+/+ MEFs; 10 μM ionomycin, incubation for 24 h) was “approximately 70%”, the cell viability (eEF2 kinase+/+ MEFs; increasing concentrations of ionomycin from 1 to 10 μM, 24 h) was “progressive decrease of cell viability” and the “effect on the viability” value (eEF2 kinase−/− MEFs; same concentrations of ionomycin (1 to 10 μM), 24 h) was “virtually no effect”.
